Source: US9713648B2, “Weekly dosing regimens for anti-CD30 VC-PAB-MMAE antibody drug-conjugates” (Seattle Genetics, Inc., priority 2009, dated 2017)

Key:
Assay type in all cases: in vivo, human
HL = assay: Phase 1 weekly dosing study: response rate in HL patients; conditions: weekly 0.4-1.4 mg/kg
Description: (§1) A multicenter, phase 1, weekly dosing, dose escalation study was conducted in pts with refractory or relapsed HL or systemicALCL. The cAC10-MC-vc-PAB-MMAE antibody drug conjugate was administered weekly at doses of 0.4-1.4 mg/kg (2-hr IV infusions). Patients with […] or better after two 21-day cycles (6 doses) were eligible to continue treatment with the antibody drug conjugate.
(§2) Results: In 34 patients, median age was 34 yrs (range 13-82). Patients received a median of 5 prior therapies; 62% received an autologous SCT. MTD was exceeded at 1.4 mg/kg.

[1] = Phase 1 weekly dosing study: exposure (AUC); conditions: weekly doses of 0.4-1.4 mg/kg
Description: as §1, §2

sALCL = assay: Phase 1 weekly dosing study: response rate in sALCL patients; conditions: sALCL patients (4/5), weekly 0.4-1.4 mg/kg
Description: as §1, §2

[2] = tested on: refractory or relapsed HL or systemicALCL; assay: Phase 1 weekly dosing, dose escalation study: best clinical response, all evaluable patients; conditions: for Best Clinical Response: CR / Best Clinical Response: PD / Best Clinical Response: PR / Best Clinical Response: SD: number of patients
Description: as §1, §2

[3] = Phase 1 weekly dosing study: tolerability, adverse events, MTD/DLT
Description: as §1
The grade 4 events were neutropenia (1 subject), and hyperglycemia (1). The grade 3 events were neutropenia (3), diarrhea (1), paresthesia (1), vomiting (1), and leucopenia (1). The grade 2 or lower adverse events were nausea (9), fatigue (8), peripheral neuropathy (6), neutropenia (2), dizziness (4), hyperglycemia (3), and paresthesia (3). The dose limiting toxicity was at 1.4 mg/kg.

[4] = Total of all dose groups 0.4-1.4 mg/kg, N=27
[5] = dose group 0.6 mg/kg weekly, N=3
[6] = dose group 1.0 mg/kg weekly, N=6
[7] = dose group 1.2 mg/kg weekly, N=5
[8] = dose group 1.4 mg/kg weekly, N=3
[9] = number of subjects among 34 treated patients

For “cAC10-MC-vc-PAB-MMAE: chimeric AC10 antibody conjugated to the drug MMAE through a MC-vc-PAB linker; anti-CD30 antibody-drug conjugate”, the “Complete Response” value (HL; HL Patients (6/22)) was 27% (6/22), the “Overall Response Rate (CR + PR)” value (HL; HL Patients (9/22)) was 41% (9/22) and the “Exposure (AUC)” value [1] was “increased relative to dose level”. For the same substance, the “Complete Response” value (sALCL) was 80% (4/5), the “Overall Response Rate (CR + PR)” value (sALCL) was 80% (4/5) and the “observed time to response” value ([2]; 1 mg/kg dose, weekly) was “approximately 8 wks”. The “Complete Response” value ([2]; All Patients (10/27), weekly 0.4-1.4 mg/kg) was 37% (10/27), the “Overall Response Rate (CR + PR)” value ([2]; All Patients (13/27), weekly 0.4-1.4 mg/kg) was 48% (13/27) and the “Tumor Reductions” value ([2]; All Patients (22/27), weekly 0.4-1.4 mg/kg) was 81% (22/27). For the same substance, the CRs observed ([2]; at higher doses) was “Multiple”, the “Best Clinical Response: CR” value [2, 4] was 10 ^ and the “Best Clinical Response: PD” value [2, 4] was 3. The “Best Clinical Response: PR” value [2, 4] was 3, the “Best Clinical Response: SD” value [2, 4] was 22 and the “Best Clinical Response: SD” value ([2]; dose group 0.4 mg/kg weekly, N=4, includes 1 patient with ALCL) was 4^+. The “Best Clinical Response: PD” value [2, 5] was 1, the “Best Clinical Response: PR” value [2, 5] was 1 and the “Best Clinical Response: SD” value [2, 5] was 1. The “Best Clinical Response: PD” value ([2]; dose group 0.8 mg/kg weekly, N=6) was 1, the “Best Clinical Response: SD” value ([2]; dose group 0.8 mg/kg weekly, N=6, 1 pediatric patient) was 1^P and the “Best Clinical Response: CR” value ([2]; dose group 0.8 mg/kg weekly, N=6, includes 2 patients with ALCL) was 4^++. The “Best Clinical Response: PR” value [2, 6] was 1, the “Best Clinical Response: SD” value [2, 6] was 1 and the “Best Clinical Response: CR” value ([2]; dose group 1.0 mg/kg weekly, N=6, includes 2 patients with ALCL) was 4^++. For the same substance, the “Best Clinical Response: PD” value [2, 7] was 1, the “Best Clinical Response: PR” value [2, 7] was 1 and the “Best Clinical Response: SD” value ([2]; dose group 1.2 mg/kg weekly, N=5, includes 1 pediatric patient) was 3^P. For the same substance, the “Best Clinical Response: CR” value [2, 8] was 2^, the “Best Clinical Response: SD” value [2, 8] was 1 and the “time within which multiple complete responses were observed” value ([2]; phase I study, weekly regimen) was no more than 8 weeks. The “grade 5 events” value ([3]; 34 treated patients) was “no grade 5 events”, the tolerability ([3]; 34 treated patients) was “generally well tolerated” and the “grade 2 or lower adverse events: dizziness” value [3, 9] was 4. For the same substance, the “grade 2 or lower adverse events: fatigue” value [3, 9] was 8, the “grade 2 or lower adverse events: hyperglycemia” value [3, 9] was 3 and the “grade 2 or lower adverse events: nausea” value [3, 9] was 9. For the same substance, the “grade 2 or lower adverse events: neutropenia” value [3, 9] was 2, the “grade 2 or lower adverse events: paresthesia” value [3, 9] was 3 and the “grade 2 or lower adverse events: peripheral neuropathy” value [3, 9] was 6. For the same substance, the “grade 3 events: diarrhea” value [3, 9] was 1, the “grade 3 events: leucopenia” value [3, 9] was 1 and the “grade 3 events: neutropenia” value [3, 9] was 3. For the same substance, the “grade 3 events: paresthesia” value [3, 9] was 1, the “grade 3 events: vomiting” value [3, 9] was 1 and the “grade 4 events: hyperglycemia” value [3, 9] was 1. The “grade 4 events: neutropenia” value [3, 9] was 1 subject, the “dose limiting toxicity (dose at which it occurred)” value ([3]; weekly dosing) was 1.4 mg/kg and the “MTD (exceeded at)” value ([3]; weekly dosing, 2-hr IV infusions, 34 patients) was less than 1.4 mg/kg.
